Measured values taken from paper PMC6697583 (Cancer research, 2019).

Biological target: T1, heme oxygenase 1 (HO-1) (Homo sapiens, UniProt P09601)
T1 sequence (P09601 1-288): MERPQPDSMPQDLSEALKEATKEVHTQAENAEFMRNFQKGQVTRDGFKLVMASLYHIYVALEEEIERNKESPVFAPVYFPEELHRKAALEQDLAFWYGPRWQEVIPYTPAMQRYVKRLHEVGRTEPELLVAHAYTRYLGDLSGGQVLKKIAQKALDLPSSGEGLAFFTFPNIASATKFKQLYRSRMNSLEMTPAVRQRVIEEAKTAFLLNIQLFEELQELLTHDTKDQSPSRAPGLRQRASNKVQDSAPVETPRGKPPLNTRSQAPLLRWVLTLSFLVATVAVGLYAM
Assay: bilirubin fluorescence assay on purified HO-1
Assay type: biochemical

Molecule Cc1c(O)ccc2c1OC[C@@H](c1ccc(O)cc1)[C@H]2c1ccc(O)cc1 [ME-344, (3R,4S)-3,4-bis(4-hydroxyphenyl)-8-methyl-3,4-dihydro-2H-chromen-7-ol] has an IC50 of 17.6 nM.
